Key:
[1] = Liposome co-sedimentation assay; assay type: binding; conditions: protein alone (2 μM) with PI3P-containing LUVs (1 mM), 25 mM Hepes pH 7.5, 200 mM NaCl, 1 h room temperature; Coomassie densitometry; mean ± SD
Experimental: All lipids were purchased from Avanti Polar Lipids, INC. (Alabaster, AL) and dissolved in a final 20:9 molar ratio of chloroform:methanol. The lipid composition of liposomes consisted of DOPC, DOPE, DOPS, 18:1 PI(3)P, and 1,2-dioleoyl-sn-glycero-3-phosphoethanolamine-N-(lissamine rhodamine B sulfonyl) (18:1 Liss Rhod PE) in a final molar ratio of 44.7:29.3:20.0:5.0:1.0, respectively. Vesicles were prepared using the same thin-film hydration method described for GUVs, followed by extrusion to get a more homogeneous vesicle population. A mini extruder (Avanti Polar Lipids) and Whatman Nucleopore track-etched membranes with a pore size of 0.4 μm (Cytiva) were used to obtain Large Unilamellar Vesicles (LUVs). The extrusion buffer (25 mM Hepes pH 7.5, 1 mM TCEP) was supplemented with 250 mM raffinose pentahydrate to produce vesicles filled with raffinose. These vesicles can be separated from the aqueous solution in co-sedimentation assays by centrifugation (Julkowska et al, [2013]). […]
For co-sedimentation experiments, the working buffer (25 mM Hepes pH 7.5, 200 mM NaCl, 1 mM TCEP), proteins (Retriever, HisSumo-SNX17, and His10-L2FBR or His10-LRP1ICD in a 2:2:4 μM ratio), and liposomes (1 mM final concentration) were sequentially mixed into 0.5 ml tubes. […] Quantification of signal intensity was determined using Empiria Studio Software (LI-COR). […]

VPS26C = molecular target: T1, VPS26C (Homo sapiens, UniProt O14972); experiment: Isothermal titration calorimetry VPS26C with SNX17FERM-CT; assay type: binding; conditions: ITC, 30 μM VPS26C and 300 μM SNX17FERM-CT, 25 mM Hepes pH 7.5, 150 mM NaCl, 25 °C; also pull-down
T1 construct: His-Sumo3 (N, cleaved yes); made in house; host or cells: Escherichia coli BL21(DE3)
Experimental: Isothermal titration calorimetry (ITC) experiments were carried out on a Nano ITC calorimeter (TA Instruments). VPS26C and SNX17FERM-CT were dialyzed overnight at 4 °C against 25 mM Hepes pH 7.5, 150 mM NaCl, and 0.5 mM TCEP, and degassed for 30 min at 25 °C before titration. The titration experiments were conducted at 25 °C with one initial 1.5 μl injection followed by 19 injections of 2.5 μl with a spacing of 300 s between injections. To determine the heat of dilution similar injections of SNX17FERM-CT in buffer were carried out. The resulting titration data were analyzed using NanoAnalyze software (TA Instruments).

## SNX17: recombinant sorting nexin 17; His-Sumo3-SNX17 in co-sedimentation, SNX17FERM-CT in ITC
[1]
  percentage of total protein bound to the pellet: 64 ± 17%
VPS26C
  interaction with VPS26C: no direct interaction

Source: article PMC11772769, “Selective cargo and membrane recognition by SNX17 regulates its interaction with Retriever” (EMBO Reports, 2024)
